According to BindingDB's records for doi:10.1016/j.bmcl.2009.08.014 (Wuxi Pharmatech, 2009):
pIC50: −log10 of the molar value.

assay: Antagonist activity at CXCR2 expressed in CHO cells assessed as inhibition of IL-8-induced chemotaxis

pIC50 | Structure (SMILES)
6.08 | CCN(Nc1c(Nc2cccc(C(=O)N(C)C)c2O)c(=O)c1=O)c1ccc(F)cc1 [3-(2-(2-ethyl-2-(4-fluorophenyl)hydrazinyl)-3,4-dioxocyclobut-1-enylamino)-2-hydroxy-N,N-dimethylbenzamide]
7.12 | CCN(Nc1c(Nc2cccc(C(=O)N(C)C)c2O)c(=O)c1=O)c1ccccn1 [3-(2-(2-ethyl-2-(pyridin-2-yl)hydrazinyl)-3,4-dioxocyclobut-1-enylamino)-2-hydroxy-N,N-dimethylbenzamide]
5.20 | CCN(Cc1ccc(F)cc1)Nc1c(Nc2cccc(C(=O)N(C)C)c2O)c(=O)c1=O [3-(2-(2-ethyl-2-(4-fluorobenzyl)hydrazinyl)-3,4-dioxocyclobut-1-enylamino)-2-hydroxy-N,N-dimethylbenzamide]
7.27 | CCN(Nc1c(Nc2cccc(C(=O)N(C)C)c2O)c(=O)c1=O)c1ccccc1 [3-(2-(2-ethyl-2-phenylhydrazinyl)-3,4-dioxocyclobut-1-enylamino)-2-hydroxy-N,N-dimethylbenzamide]
7.00 | CCN(Nc1c(Nc2cccc(C(=O)N(C)C)c2O)c(=O)c1=O)c1ccc(OC)cc1 [3-(2-(2-ethyl-2-(4-methoxyphenyl)hydrazinyl)-3,4-dioxocyclobut-1-enylamino)-2-hydroxy-N,N-dimethylbenzamide]

More lines, now with the values behind:

Structure (SMILES) | pIC50
CCN(Nc1c(Nc2cccc(C(=O)N(C)C)c2O)c(=O)c1=O)C(=O)c1ccc(F)cc1 [3-(2-(2-ethyl-2-(4-fluorobenzoyl)hydrazinyl)-3,4-dioxocyclobut-1-enylamino)-2-hydroxy-N,N-dimethylbenzamide] | 6.08
CCN(Nc1c(Nc2cccc(C(=O)N(C)C)c2O)c(=O)c1=O)C(C)=O [3-(2-(2-acetyl-2-ethylhydrazinyl)-3,4-dioxocyclobut-1-enylamino)-2-hydroxy-N,N-dimethylbenzamide] | 5.90
CCN(CC)Nc1c(Nc2cccc(C(=O)N(C)C)c2O)c(=O)c1=O [3-(2-(2,2-diethylhydrazinyl)-3,4-dioxocyclobut-1-enylamino)-2-hydroxy-N,N-dimethylbenzamide] | 7.34
